Measurements as given in patent US9834535B2, “Sulfamate derivative compounds for use in treating or alleviating pain” (Bio-Pharm Solutions Co., Ltd., priority 2013, dated 2017).

Columns and labels:
[1] = system: Post operation-induced pain model; experiment: Antiallodynic activity on post operative-induced pain model (von Frey); assay type: in vivo, Sprague-Dawley rats; details: ip; rat, intraperitoneal, von Frey, 0.5 h
Description: Male Sprague-Dawley rats′(Orient Bio, Korea), 300˜320 g, total of 201 rats were used (details in Table 7). Rats were habituated at least 3 clays before surgery and free access to food and water (room temperature and humidity were maintained at 24±2° C. and 50±10%, respectively). The process of performing the post-operation model's surgery was adapted from Brennan et al (1996). At first, rats with allodynia (threshold valueless than 8 g) were excluded in Pre-von Frey Test. During the post-operation surgery, rats were anesthetized under gaseous anesthesia with 2% isoflurane. Rats were laid face down on a plate fixed at 37° C. to prevent against hypothermia. The ipsilateral plantar aspect (left side) of the hind paw was prepared in a sterile manner with a 10% povidone-iodine solution. […]
For efficacy measure, the threshold value of group C was assigned 100% efficacy, and the percentage of the threshold values of group A compared to group C (for each different dose level) were calculated as the efficacies. Base on these efficacy values, ED50 was calculated using log fitting. […]
For pain threshold test, all animals were placed in a stainless steel meshed chamber and habituated for 30 min in the test box. The tactile sensitivity of the ipsilateral hind paw was measured using the up-and-down method (Dixon, 1980) with seven von Frey monofilaments (0.4, 1, 2, 4, 6, 8, and 15 g) using 3 trials. […]

[2] = system: hot plate withdrawal latency; experiment: Hot-plate test; assay type: in vivo, ICR mice; details: 200 mg/kg, mouse, oral
Description: To examine the pain relief effect of the sulfamate derivative compounds, a hot-plate test was conducted in general pain animal model referring to Current Protocols in Neuroscience; Behavioral Neuroscience Unit 8.9.
ICR mice (male, 30-35 g: Orient Bio, Korea) were habituated before test in test room for 1 hour. Animals were fasted 2 hr before administration of compounds. […] All compounds were dissolved in a vehicle of 30% (v/v) PEG 400 or 20% (v/v) Tween 80. The control group was treated the vehicle without compounds.
[…] (Hu, X. et al, 2008), and then, measured as the withdrawal latency (cut-off time: 30 sec) time until the point when each mouse was taking off a paw from the plate, shaking, licking a paw or hind leg, or jumping from the plate.

STZ-induced pain model = experiment: Antiallodynic activity on streptozotocin (STZ)-induced diabetic pain model (von Frey); assay type: in vivo, Sprague-Dawley rats; details: ip, rat, intraperitoneal, 0.5 h
Description: Male, Sprague-Dawley rats (200-220 g, Nara Bio, Korea) were habituated for 1 week before surgery and allowed free access to food and water throughout the experimentation. Room temperature and humidity were maintained at 24±2° C. and 50±10%, respectively.
STZ-induced diabetic pain model was established with a modified method of Rakieten et al. (1963) and Bertrand Aubel et al. (2004). All animals were fasted 4 to 6 hr prior to STZ injection. STZ (sigma, USA) was dissolved in 20 mM sodium citrate buffer, pH 5.5 (sigma, USA) and intraperitoneally injected at 75 mg/kg, 4 ul/g, bw into the rats. […]
Tactile sensitivity (Mechanical allodynia) was evaluated using von Frey monofilaments before and after treatment of the compound of Examples and animals were used withdrawal threshold value was less than 4 g. […] The tactile sensitivity for ipsilateral hind paw was measured using the up-and-down method (Dixon, 1980) with seven von Frey monofilaments (0.4, 1, 2, 4, 6, 8, and 15 g) to 3 trials. […] The 50% paw withdrawal threshold for each paw was calculated using the following formula: [Xth] log=[vFr] log+ky where [vFr] is the force of the last von Frey used k=0.2249 which is the average interval (in log units) between the von Frey monofilaments, and y is a value that depends upon the pattern of withdrawal responses (Dixon, 1980). […]

CC1(C)O[C@@H](COS(N)(=O)=O)[C@H](c2ccccc2Cl)O1 [Example 2, ((4S,5S)-5-(2-chlorophenyl)-2,2-dimethyl-1,3-dioxolan-4-yl)methyl sulfamate]
ED50 [1]: 1.8 mg/kg
Hot plate test: effect (%) at the concentration administered [2]: ^#200 (123.6%)
ED50 (STZ-induced pain model): 7.9 mg/kg
